Laboratory results: patent publication US20150141349A1, “Method and Composition for Alleviating Tumor Symptoms” (Angiogene Pharmaceuticals Ltd., priority 2012, published 2015)
Values joined by “and” are separate entries in the source; they are usually repeats but may differ in a detail not shown here. Equal entries are not always repeated.

How the values were obtained:
carcinoid metastases = settings: compared with 55% for hepatic artery embolization; cited from earlier work
neuroendocrine tumor = settings: prolonged treatment, in combination with octreotide (Yao et al. 2008); cited from earlier work
[1] = system: GH3 pituitary tumor cells; assay: Tumor necrosis in GH3 rat pituitary tumors after ZD6126 (H&E histology, image analysis); format: in vivo; settings: individual rats; 24 h after 50 mg/kg ZD6126 bolus tail vein
Experimental: (§1) Four female Wistar Furth rats, weighing approximately 160 g, were inoculated subcutaneously in the flanks with GH3 pituitary tumor cells. Tumors were typically used for experimentation when they reached approximately 1000-3000 mm^3. Blood was taken from the tail vein of each rat 24 h before treatment with 50 mg/kg of vascular disrupting agent, ZD6126, formulated in 20% of 5% aqueous sodium bicarbonate in 80% phosphate buffered saline. The vascular disrupting agent was administered as a bolus injection through the tail vein. 24 h after treatment a further blood sample was taken from the tail vein and the rats euthanized. Tumors were excised, fixed in formalin and stained with H&E for histology. Necrosis was determined by image analysis (Image J). Blood samples were analyzed for prolactin and growth hormone at by ELISA using kits supplied by SPIbio.

[2] = system: GH3 pituitary tumor cells; assay: Circulating growth hormone and prolactin (ELISA) in GH3 tumor-bearing rats treated with ZD6126; format: in vivo, rat; design: Growth Hormone pre / Growth Hormone post / Prolactin pre / Prolactin post: unit not given beside the values
Experimental: as §1
Since control animals had significant levels of both hormones (within the normal range) and since the VDA could not be expected to reduce normal host hormone production it might be reasonable to subtract a figure from each reading to allow for the persisting host-derived hormone. Although data on normal hormone levels were derived from a single control (non-tumor bearing) animal, the values are very much in agreement with those reported in the literature. Subtracting this value would give a rough estimate of the reduction in rats 1 and 2 of tumor-derived growth hormone of 72% and 40% and a reduction in tumor-derived prolactin of 65% and 33% respectively.

[3] = system: GH3 pituitary tumor cells; assay: Tumor necrosis in GH3 tumors (prolactinomas) after CA4P (H&E histology, image analysis); format: in vivo, rat
Experimental: (§2) Eighteen female Wistar Furth rats (Charles River, France), weighing approximately 130-140 g, were inoculated subcutaneously in the flanks with 1×10^6 GH3 pituitary tumor cells. Tumors were typically used for experimentation when they reached approximately 1 cm in diameter, or 300-1000 mm^3. Blood was taken from the tail vein of each rat 24 h before treatment with 100 mg/kg of vascular disrupting agent, CA4P, formulated in 20% of 5% aqueous sodium bicarbonate in 80% phosphate buffered saline. The CA4P was administered as a bolus injection through the tail vein. 24 h or 48 h after treatment a further blood sample was taken from the tail vein and the rats euthanized. Tumors were excised, fixed in formalin and stained with H&E for histology. Necrosis was determined by image analysis (Image J).

[4] = system: GH3 pituitary tumor cells; assay: Prolactin and growth hormone (ELISA) in GH3 tumor-bearing rats treated with CA4P; format: in vivo, rat; design: tumor GH pre- / tumor GH post-: unit not given beside the values; settings: for Growth Hormone tumor-derived: historical background 46 ng/ml subtracted; for Prolactin tumor-derived: historical basal level 26 ng/ml subtracted; for GH % decrease: tumor-derived GH
Experimental: as §2
Prolactin and growth hormone were measured using commercial ELISA's (SPI/BIO Bertin Pharma/Cayman kits sourced from Bioquote Limited, York, UK). Tumor-derived prolactin levels were calculated assuming a historical basal level of 26 ng/ml. […] Tumor-derived growth hormone levels were calculated by subtracting a historical value for background growth hormone of 46 ng/ml. […] All measurements for the control group were performed 24 hours after injection of saline.

[5] = system: Pancreatic Endocrine Tumors; assay: Serum insulin (ELISA) in Pdx1-Cre:Men1floxed/floxed mice treated with CA4P; format: in vivo
Experimental: Eight Pdx1-Cre:Men1floxed/floxed mice (described in Shen et al. Cancer Res. 2009, 69(5):1858-66) were divided into treated group (n=4) and control group (n=4). In an ongoing experiment, the mice from the treated group and control group were injected i.p. daily with CA4P (100 mg/kg) and saline, respectively, for three days monthly. The mice underwent a 24 h fast prior to collecting whole blood via a retro-orbital bleeding technique weekly at pre- and post-treatment. Glucose levels were monitored by enzymatic colorimetric assay. All mice underwent a microPET/CT scan monthly. Anti-tumor activity was measured by standardized-uptake value (SUV) analysis. All mice were weighed three times per week as an indicator of toxicity.

[6] = 24 h after 50 mg/kg ZD6126, individual rats, ±SD
[7] = baseline, blood 24 h before ZD6126 treatment, individual rats, ±SD
[8] = pre vs 24 h after 50 mg/kg ZD6126, individual rats
[9] = rats 1 and 2, rough estimate after subtracting value of tumor-free control
[10] = 24 h after 100 mg/kg CA4P, individual rats
[11] = 48 h after 100 mg/kg CA4P, individual rats

For `Cc1ccc(NC(=O)c2ccc(CN3CCN(C)CC3)cc2)cc1Nc1nccc(-c2cccnc2)n1` [imatinib], the “response rate (Phase II trials)” value (carcinoid metastases) is listed as 4%.

In the case of `COc1cc2ncnc(Nc3ccc(F)c(Cl)c3)c2cc1OCCCN1CCOCC1` [gefitinib], the “response rate (Phase II trials)” value (carcinoid metastases) is listed as 2%.

For `CO[C@H]1C[C@@H]2CC[C@@H](C)[C@@](O)(O2)C(=O)C(=O)N2CCCC[C@H]2C(=O)O[C@H]([C@H](C)C[C@@H]2CC[C@@H](OCCO)[C@H](OC)C2)CC(=O)[C@H](C)/C=C(\C)[C@@H](O)[C@@H](OC)C(=O)[C@H](C)C[C@H](C)/C=C/C=C/C=C/1C` [everolimus], the “response rate (Phase II trials)” value (carcinoid metastases) is listed as 13%.

For `CNC(=O)c1cc(Oc2ccc(NC(=O)Nc3ccc(Cl)c(C(F)(F)F)c3)cc2)ccn1` [sorafenib], the “response rate (Phase II trials)” value (carcinoid metastases) is listed as 10%.

In the case of bevacizumab: anti-VEGF antibody, the “neuroendocrine tumor patients achieving a meaningful reduction in urinary 5-HIAA” value (neuroendocrine tumor) is listed as 19%, the “patients achieving a reduction in plasma levels of chromogranin A” value (neuroendocrine tumor) is listed as 6% and the “response rate (Phase II trials)” value (carcinoid metastases) is listed as 18%.

For `COc1cc2c(c(OC)c1OC)-c1ccc(OP(=O)(O)O)cc1[C@@H](NC(C)=O)CC2` [ZD6126], the “% necr. (tumor necrosis)” value [1] was 39% and 42% and little or no necrosis and 0%, the “Growth Hormone post” value [2, 6] was 91 ± 7 and 102 ± 4 and 204 ± 14 and 171 ± 11 and the Prolactin post [2, 6] was 90 ± 2 and 78 ± 3 and 129 ± 5 and 52 ± 1. For the same molecule, the “Growth Hormone pre” value [2, 7] was 214 ± 11 and 139 ± 8 and 193 ± 4 and 146 ± 4, the Prolactin pre [2, 7] was 211 ± 28 and 104 ± 3 and 134 ± 17 and 53 ± 3 and the “Growth Hormone Δ (percent reduction)” value [2, 8] was 57 and 26 and −5 and −16. The “Prolactin Δ (percent reduction)” value [2, 8] was 57 and 24 and 4 and 1, the “reduction in tumor-derived prolactin” value [2, 9] was ~65% and ~33% and the “reduction of tumor-derived growth hormone” value [2, 9] was ~72% and ~40%.

In the case of `Clc1ccc(Nc2nnc(Cc3ccncc3)c3ccccc23)cc1` [valatinib], the “response rate (Phase II trials)” value (carcinoid metastases) is given as 0%.

In the case of `COc1ccc(/C=C\c2cc(OC)c(OC)c(OC)c2)cc1OP(=O)(O)O` [CA4P, combretastatin A-4 phosphate], the “% tumor necrosis” value ([3]; 24 h after 100 mg/kg CA4P, group mean) is reported as 43.7 ± 29.6%, the “% tumor necrosis” value [3, 10] is reported as 83% and 58% and 3% and 59% (2×) and the “% tumor necrosis” value ([3]; 48 h after 100 mg/kg CA4P, group mean) is reported as 61.7 ± 27.4%. For the same molecule, the “% tumor necrosis” value [3, 11] was 77% and 30%, the Prolactin total ([4]; 24 h after 100 mg/kg CA4P bolus tail vein, n=6) was 64.6 ± 19.1 ng/ml ± SD and the “Growth Hormone tumor-derived” value ([4]; 24 h after 100 mg/kg CA4P, n=6) was 29.1 ± 13.6 ng/ml ± SD. For the same molecule, the Prolactin tumor-derived ([4]; 24 h after 100 mg/kg CA4P, n=6) was 38.6 ± 19.1 ng/ml ± SD, the “tumor GH post-” value [4, 10] was 15.8 and 29.1 and 48.4 and 19.2 and 42.4 and the GH % decrease [4, 10] was 63.2% and 36.0% and 21.6% and 50.0% and 6.2%. For the same molecule, the “Growth Hormone total” value ([4]; 24 h after 100 mg/kg CA4P, n=6) was 75.1 ± 13.6 ng/ml ± SD, the “Growth Hormone tumor-derived” value ([4]; 48 h after 100 mg/kg CA4P, n=2) was 20.8 ± 7.8 ng/ml ± SD and the Prolactin tumor-derived ([4]; 48 h after 100 mg/kg CA4P, n=2) was 28.3 ± 20.2 ng/ml ± SD. For the same molecule, the “tumor GH post-” value [4, 11] was 15.3 and 26.3, the GH % decrease [4, 11] was 64.1% and 35.2% and the “Growth Hormone total” value ([4]; 48 h after 100 mg/kg CA4P, n=2) was 66.8 ± 7.8 ng/ml ± SD. For the same molecule, the Prolactin total ([4]; 48 h after 100 mg/kg CA4P, n=2) was 54.3 ± 20.2 ng/ml ± SD, the “tumor GH pre-” value ([4]; baseline before CA4P, individual rats, tumor-derived growth hormone) was 42.9 and 45.5 and 61.7 and 38.4 and 45.2 and 42.6 and 40.6 and the “total and tumor-derived growth hormone after treatment (in words)” value ([4]; p<0.03, one-tailed t-test) was “statistically lower amount”. The “total and tumor-derived prolactin after treatment (in words)” value ([4]; p<0.04, one-tailed T-test) was “statistically lower amount”, the “Serum Insulin” value ([5]; Day 0 (baseline), CA4P group n=4, P vs PBS 0.6720) was 3.695 ± 0.669 µg/L and the “Serum Insulin” value ([5]; Day 4, CA4P 100 mg/kg i.p. daily for three days, 24 h fast, P vs PBS 0.3699) was 3.060 ± 1.037 µg/L. The “Serum Insulin” value ([5]; Day 11, CA4P 100 mg/kg i.p. daily for three days, 24 h fast, P vs PBS 0.0350) was 2.495 ± 0.8722 µg/L.
